Results: patent US5616320A, “Use of antibiotics 10381b to promote growth” (The Upjohn Company, priority 1994, dated 1997)

Assays:
Bacillus subtilis = assay: Antibacterial spectrum, disc zone of inhibition; type: cell-based; details: UC 564; 1/2 inch discs, 80 μl
Procedure: (§1) ^1 Assays marked * used 1/4 inch (6.35 mm) discs and 20 μl
(§2) All other assays used 1/2 inch (12.7 mm) discs and 80 μl samples.
(§3) h = hazy; vl = very light; tr = trace. Assay procedures are described in
(§4) Hanka, L. J., M. R. Burch and W. T. Sokolski. Psicofuranine. IV.
(§5) Microbiological assay. Antibiot. and Chemoth. 9:432-435 (1959).

Bacteroides fragilis = assay: Antibacterial spectrum, disc zone of inhibition; type: cell-based; details: UC 6513; 1/2 inch discs, 80 μl
Procedure: as §1, §2, §3, §4, §5

[1] = tested on: Bordetella bronchiseptica; assay: Antibacterial spectrum, disc zone of inhibition; type: cell-based; details: UC 6481; 1/2 inch discs, 80 μl
Procedure: as §1, §2, §3, §4, §5

Candida albicans = assay: Antibacterial spectrum, disc zone of inhibition; type: cell-based; details: UC 1392
Procedure: as §1, §2, §3, §4, §5

Clostridium perfrigens = assay: Antibacterial spectrum, disc zone of inhibition; type: cell-based; details: UC 6509; 1/2 inch discs, 80 μl
Procedure: as §1, §2, §3, §4, §5

Escherichia coli = assay: Antibacterial spectrum, disc zone of inhibition; type: cell-based; details: UC 51; 1/2 inch discs, 80 μl
Procedure: as §1, §2, §3, §4, §5

Hemophilus influenzae = assay: Antibacterial spectrum, disc zone of inhibition; type: cell-based; details: UC 6483; 1/4 inch discs, 20 μl
Procedure: as §1, §2, §3, §4, §5

Klebsiella pneumoniae = assay: Antibacterial spectrum, disc zone of inhibition; type: cell-based; details: UC 57; 1/2 inch discs, 80 μl
Procedure: as §1, §2, §3, §4, §5

Micrococcus luteus = assay: Antibacterial spectrum, disc zone of inhibition; type: cell-based; details: 1/2 inch discs, 80 μl
Procedure: as §1, §2, §3, §4, §5

Mycobacterium avium = assay: Antibacterial spectrum, disc zone of inhibition; type: cell-based; details: UC 159; 1/2 inch discs, 80 μl
Procedure: as §1, §2, §3, §4, §5

Pasteurella hemolytica = assay: Antibacterial spectrum, disc zone of inhibition; type: cell-based; details: UC 6531; 1/2 inch discs, 80 μl
Procedure: as §1, §2, §3, §4, §5

Penicillium oxalicum = assay: Antibacterial spectrum, disc zone of inhibition; type: cell-based; details: UC 1268
Procedure: as §1, §2, §3, §4, §5

Proteus vulgaris = assay: Antibacterial spectrum, disc zone of inhibition; type: cell-based; details: UC 93; 1/2 inch discs, 80 μl
Procedure: as §1, §2, §3, §4, §5

Pseudomonas aeruginosa = assay: Antibacterial spectrum, disc zone of inhibition; type: cell-based; details: UC 95; 1/2 inch discs, 80 μl
Procedure: as §1, §2, §3, §4, §5

[2] = tested on: Rhodopseudomonas sphaeroides; assay: Antibacterial spectrum, disc zone of inhibition; type: cell-based; details: UC 3238; 1/2 inch discs, 80 μl
Procedure: as §1, §2, §3, §4, §5

Saccharomyces cerevisiae = assay: Antibacterial spectrum, disc zone of inhibition; type: cell-based; details: UC 1342
Procedure: as §1, §2, §3, §4, §5

[3] = tested on: Salmonella schottmuelleri; assay: Antibacterial spectrum, disc zone of inhibition; type: cell-based; details: UC 126; 1/2 inch discs, 80 μl
Procedure: as §1, §2, §3, §4, §5

Serratia marcescens = assay: Antibacterial spectrum, disc zone of inhibition; type: cell-based; details: UC 6888; 1/4 inch discs, 20 μl
Procedure: as §1, §2, §3, §4, §5

Staphylococcus aureus = assay: Antibacterial spectrum, disc zone of inhibition; type: cell-based
Procedure: as §1, §2, §3, §4, §5

Streptococcus faecalis = assay: Antibacterial spectrum, disc zone of inhibition; type: cell-based
Procedure: as §1, §2, §3, §4, §5

Streptococcus pyogenes = assay: Antibacterial spectrum, disc zone of inhibition; type: cell-based; details: UC 152
Procedure: as §1, §2, §3, §4, §5

Neisseria gonorrhoeae = assay: Antibacterial spectrum, disc zone of inhibition; type: cell-based; design: key: hazy; vl: very light; trace; details: UC 3065; 1/4 inch discs, 20 μl
Procedure: as §1, §2, §3, §4, §5

[4] = tested on: Staphylococcus epidermidis; assay: Antibacterial spectrum, disc zone of inhibition; type: cell-based; design: key: hazy; vl: very light; trace; details: UC 719; 1/4 inch discs, 20 μl
Procedure: as §1, §2, §3, §4, §5

Streptococcus pneumoniae = assay: Antibacterial spectrum, disc zone of inhibition; type: cell-based; design: key: hazy; vl: very light; trace; details: UC 9207; 1/4 inch discs, 20 μl
Procedure: as §1, §2, §3, §4, §5

Solubility = type: physicochemical
Toxicity = assay: Toxicity; design: species or system mammals
[5] = tested on: Gram-positive bacteria, yeasts, and fungi; assay: In vitro antimicrobial activity (statement in words); type: cell-based
yeasts and fungi = assay: Growth inhibition (statement in words); type: cell-based

In the case of `CC(CCN(C)C(=N)N)C(N)C(=O)NC1C=CC(n2ccc(N)nc2=O)OC1C(=O)O` (centres unmarked) [Antibiotic 10381a1], the “Zone of Inhibition” value (Bacillus subtilis) is reported as 0 mm, the “Zone of Inhibition” value (Bacteroides fragilis) is reported as 21 mm and the “Zone of Inhibition” value [1] is reported as 0 mm. For the same compound, the “activity” value (Candida albicans) was “active”, the “Zone of Inhibition” value (Candida albicans; 1/4 inch discs, 20 μl) was 12 mm and the “Zone of Inhibition” value (Clostridium perfrigens) was 18 mm. The “Zone of Inhibition” value (Escherichia coli) was 0 mm, the “Zone of Inhibition” value (Hemophilus influenzae) was 10 mm and the “Zone of Inhibition” value (Klebsiella pneumoniae) was 0 mm. The “Zone of Inhibition” value (Micrococcus luteus; UC 130) was 32 mm, the “Zone of Inhibition” value (Micrococcus luteus; UC 3383) was 32 mm and the “Zone of Inhibition” value (Mycobacterium avium) was 17 mm. The “Zone of Inhibition” value (Pasteurella hemolytica) was 0 mm, the “activity” value (Penicillium oxalicum) was “active” and the “Zone of Inhibition” value (Penicillium oxalicum; 1/2 inch discs, 80 μl) was 36 mm. For the same compound, the “Zone of Inhibition” value (Proteus vulgaris) was 0 mm, the “Zone of Inhibition” value (Pseudomonas aeruginosa) was 0 mm and the “Zone of Inhibition” value [2] was 33 mm. The “activity” value (Saccharomyces cerevisiae) was “active”, the “Zone of Inhibition” value (Saccharomyces cerevisiae; 1/2 inch discs, 80 μl) was 31 mm and the “Zone of Inhibition” value [3] was 0 mm. The “Zone of Inhibition” value (Serratia marcescens) was 0 mm, the “Zone of Inhibition” value (Staphylococcus aureus; UC 80, 1/2 inch discs, 80 μl) was 16 h and the “Zone of Inhibition” value (Staphylococcus aureus; UC 3665, 1/2 inch discs, 80 μl) was 0 mm. The “Zone of Inhibition” value (Staphylococcus aureus; UC 6685, 1/4 inch discs, 20 μl) was 0 mm, the “Zone of Inhibition” value (Streptococcus faecalis; UC 221, 1/4 inch discs, 20 μl) was 10 vl and the “activity” value (Streptococcus faecalis; UC 694) was “active”. For the same compound, the “activity” value (Streptococcus pyogenes) was “active”, the “Zone of Inhibition” value (Streptococcus pyogenes; 1/2 inch discs, 80 μl) was 25 mm and the “Zone of Inhibition” value (Neisseria gonorrhoeae) was “tr”. The “Zone of Inhibition” value [4] was “tr”, the “Zone of Inhibition” value (Streptococcus pneumoniae) was “tr” and the Solubility (Solubility; acetone, ethyl acetate, ether and chlorinated or saturated hydrocarbon solvents) was “Insoluble”. The Solubility (Solubility; water and lower alcohols) was “Soluble”, the “toxicity relative to blasticidin” value (Toxicity; compared with blasticidin) was “less toxicity than blasticidin” and the toxicity (Toxicity; in mammals / versus prior art antibiotics) was “greatly reduced toxicity”. For the same compound, the “antimicrobial activity” value [5] was “broad spectrum antibiotic properties” and the growth inhibitory effect (yeasts and fungi) was “especially strong growth inhibitory effect”.
